Converted amounts (≈) assume the structure as drawn. Read-outs that look alike come from different tables or passages of the source. Where a SMILES comes first, the peptide text is derived from it. Bridges are numbered along the chain shown (N, C = ends). [ ]: non-standard residue; d: D form. The star is where a group is joined. Hexanoyl(3R-OH,5-Me) = CC(C)C[C@@H](O)CC(=O)*; dNMeF = CN[C@H](Cc1ccccc1)C(=O)O; dOrn = NCCC[C@@H](N)C(=O)O
Tests used:
MRSA4 = format: cell-based, Staphylococcus aureus; conditions: 18 h
Protocol: (§1) Antimicrobial activity assay of bead-derived peptides. […]
(§2) plate was added DMSO (1 µL/well). […]
(§3) precipitation of the grown cells was examined.
(§4) Evaluation of antimicrobial spectra of peptides. The MIC assay was performed according to the Clinical and Laboratory Standards Institute protocols. The antimicrobial activities of the peptides were measured […]
(§5) Soy Broth or Müller Hinton Broth agar plates. Bacterial inoculum was prepared by direct suspension of the […]
(§6) and incubated at 37 °C for 18 h. […]
(§7) inhibited growth of bacteria.

[1] = test system: Staphylococcus aureus MSSA1; conditions: 10% BCS
Protocol: Evaluation of antimicrobial spectra of peptides. The MIC assay was performed according to the Clinical and Laboratory Standards Institute protocols. The antimicrobial activities of the peptides were measured using the broth microdilution method.1 Serial dilutions of peptides were prepared in cation adjusted Müller Hinton Broth. Each dilution (100 µL) was dispensed to each well of the round-bottom plate to obtain final concentrations ranging from 64 µg/m L to 0.0075 µg/m L. Bacteria were grown at 37 °C overnight on Tryptic Soy Broth or Müller Hinton Broth agar plates. Bacterial inoculum was prepared by direct suspension of the colonies in 0.9% saline, and adjusted to obtain OD 625 0.08–0.13 using a spectrophotometer UV -1280 (Shimadzu). The resultant suspension was diluted with cation adjusted Müller Hinton Broth (1/20). The resultant mixture (10 µL) was inoculated to each well of the plates (approximately 5 ×10^4 CFU/well ), mixed, and incubated at 37 °C for 18 h. The MIC value was determined as the minimum concentration that inhibited growth of bacteria. To evaluate the antimicrobial activities of peptides in the presence of serum, 10% bovine calf serum in cation adjusted Müller Hinton Broth was used.

[2] = Liposomal membrane disruption assay (carboxyfluorescein LUVs); format: biochemical
Protocol: Preparation of LUVs consisting of PC/PG. Carboxyfluorescein-encapsulated large unilamellar vesicles (LUVs) were prepared according to the thin-film hydration method, followed by extrusion through Nuclepore polycarbonate filters (GE Healthcare) mounted in the mini-extruder apparatus (Avanti Polar Lipids). A solution of egg yolk phosphatidylcholine (9.60 mg, 12.5 µmol) and egg yolk phosphatidylglycerol (9.78 mg, 12.5 µmol) in CHCl3 (0.505 mL) was concentrated, and dried under vacuum to form a lipid thin film. The thin film was hydrated and suspended in carboxyfluorescein-containing buffer solution [0.500 mL, 5 mM 4-(2-hydroxyethyl)-1-piperazineethanesulfonic acid (HEPES), 20 mM carboxyfluorescein, pH 7.5] by vortexing and sonication. After five -times freeze-thaw cycles, the lipid suspension was extruded 19 times through a polycarbonate filter with 0.40 µm of pore size in the diameter. The external carboxyfluorescein -containing buffer was replaced w ith a carboxyfluorescein -free buffer solution [20 mM HEPES, 1 mM ethylenediaminetetraacetic acid (EDTA), pH 7.5] through size exclusion chromatography using disposable PD-10 column (GE Healthcare). Concentration of egg yolk phosphatidylcholine was determined by using Phospholipid C-Test Wako (Fujifilm Wako Pure Chemical). The final concentration of egg yolk phosphatidylcholine was adjusted to 4.0 µM with the carboxyfluorescein-free buffer solution, and the solution was used for membrane disruption assay. […]
Membrane disruption assay. […]
to various concentrations as 5-fold serial dilutions. The solution of peptides (2 µL/well) and the carboxyfluorescein-encapsulated LUV suspension (200 µL/well) were mixed in black polystyrene flat-bottom 96-well plates. The final concentration of peptides ranged from 2970 nM to 0.950 nM. The plates were vortexed at room temperature for 30 min, and then fluorescence of carboxyfluorescein (Ex. 490 nm/Em. 517 nm) of each well was measured at room temperature on Gemini EM microplate reader. Trion X-100/H2O (5/95, 2 µL), MeOH/H2O (4/6, 2 µL), and the LUV suspension were mixed in each plate to determine 100% lysis. MeOH/H2O (4/6, 2 µL) and the LUV suspension were mixed in each plate to determine 0% lysis.
The membrane disruption activities of tested peptides (I) were normalized against 100% lysis by Triton X -100 […]
(Imax) and 0% lysis by MeOH/H2O (4/6) (I0) as following, where Ix is the fluorescence intensity (Supplementary Equation 2).
I = 100 × (Ix – I0) / (Imax – I0) (2)
The membrane-disrupting activities were evaluated as half-maximal response (EC50, nM) values by means of three replicates. Sigmoidal curve fittings were performed on R2 with drc package (Supplementary Figs S7–S9).3 Two-parameter logistic model was applied for the fitting.

[3] = test system: Listeria monocytogenes 10403S; format: cell-based; conditions: 18 h
Protocol: as §1, §2, §3, §4, §5, §6, §7

Bacillus cereus JCM20037 = format: cell-based; conditions: JCM20037, 18 h
Protocol: as §1, §2, §3, §4, §5, §6, §7

[4] = test system: Bacillus subtilis JCM2499; format: cell-based; conditions: JCM2499, 18 h
Protocol: as §1, §2, §3, §4, §5, §6, §7

[5] = 30 min, room temperature, mean ± SD of three independent experiments, read-out: EC50 PC/PG
[6] = PC/PG LUVs, 1st experiment, read-out: EC50 PC/PG 1st
[7] = PC/PG LUVs, 2nd experiment, read-out: EC50 PC/PG 2nd
[8] = PC/PG LUVs, 3rd experiment, read-out: EC50 PC/PG 3rd

Question: For `CC[C@H](C)[C@@H]1NC(=O)[C@@H](Cc2c[nH]c3ccccc23)NC(=O)[C@@H](C(C)C)NC(=O)[C@H](CCC(=O)O)NC(=O)[C@@H](CCCNC(=N)N)NC(=O)[C@H](CC(C)C)NC(=O)[C@@H](Cc2ccccc2)N(C)C(=O)CNC(=O)[C@H](C)NC(=O)[C@@H](CCCNC(=N)N)NC(=O)[C@@H](NC(=O)C[C@H](O)CC(C)C)[C@@H](C)OC(=O)[C@H]([C@@H](C)O)NC1=O` [Peptide A2] ({Hexanoyl(3R-OH,5-Me)}-T[dR]AG[dNMeF]L[dR]E[dV][dW]IT; ester 1-C), which MIC (MRSA4) is on record?
Answer: 0.25 mg/L (≈ 0.159 µM)

Question: What about the “antimicrobial activity relative to parent 1” value [1] of the same compound?
Answer: 4 fold

Question: What about the EC50 [2, 5] of the same compound?
Answer: 0.714 ± 0.188 µM

Question: What about the EC50 [2, 6] of the same compound?
Answer: 0.917 µM

Question: And the EC50 [2, 7]?
Answer: 0.68 µM

Question: What about the EC50 [2, 8] of the same compound?
Answer: 0.545 µM

Question: Which MIC (MRSA4) does the source give for `CC[C@H](C)[C@@H]1NC(=O)[C@@H](Cc2c[nH]c3ccccc23)NC(=O)[C@@H](CCC(N)=O)NC(=O)[C@H](CCC(=O)O)NC(=O)[C@@H](CCCNC(=N)N)NC(=O)[C@H](CC(C)C)NC(=O)[C@@H](Cc2ccccc2)N(C)C(=O)CNC(=O)[C@H](C)NC(=O)[C@@H](CCCNC(=N)N)NC(=O)[C@@H](NC(=O)C[C@H](O)CC(C)C)[C@@H](C)OC(=O)[C@H]([C@@H](C)O)NC1=O` [Peptide A1] ({Hexanoyl(3R-OH,5-Me)}-T[dR]AG[dNMeF]L[dR]E[dQ][dW]IT; ester 1-C) here?
Answer: 0.25 mg/L (≈ 0.156 µM)

Question: And the “antimicrobial activity relative to parent 1” value [1]?
Answer: 4 fold

Question: And the EC50 [2, 5]?
Answer: 0.975 ± 0.195 µM

Question: And the EC50 [2, 6]?
Answer: 1.08 µM

Question: And the EC50 [2, 7]?
Answer: 1.09 µM

Question: And the EC50 [2, 8]?
Answer: 0.75 µM

Question: Which EC50 [2, 5] does the source give for `CC(C)C[C@@H](O)CC(=O)N[C@@H]1C(=O)N[C@H](CCCNC(=N)N)C(=O)N[C@@H](C)C(=O)NCC(=O)N(C)[C@H](Cc2ccccc2)C(=O)N[C@@H](CC(C)C)C(=O)N[C@H](CCCNC(=N)N)C(=O)N[C@@H](CCC(=O)O)C(=O)N[C@H](Cc2ccc(O)cc2)C(=O)N[C@H](Cc2c[nH]c3ccccc23)C(=O)N[C@@H](Cc2ccc(O)cc2)C(=O)N[C@@H]([C@@H](C)O)C(=O)O[C@@H]1C` [Peptide A15] ({Hexanoyl(3R-OH,5-Me)}-T[dR]AG[dNMeF]L[dR]E[dY][dW]YT; ester 1-C) here?
Answer: 1.01 ± 0.21 µM

Question: And the EC50 [2, 6]?
Answer: 1.26 µM

Question: And the EC50 [2, 7]?
Answer: 0.889 µM

Question: What about the EC50 [2, 8] of the same compound?
Answer: 0.895 µM

Question: What about the MIC [3] of the same compound?
Answer: 64 mg/L (≈ 37.9 µM)

Question: For `CC[C@H](C)[C@@H]1NC(=O)[C@@H](Cc2c[nH]c3ccccc23)NC(=O)[C@@H](CCCN)NC(=O)[C@H](CCC(=O)O)NC(=O)[C@@H](CCCNC(=N)N)NC(=O)[C@H](CC(C)C)NC(=O)[C@@H](Cc2ccccc2)N(C)C(=O)CNC(=O)[C@H](CC(N)=O)NC(=O)[C@@H](CCCNC(=N)N)NC(=O)[C@@H](NC(=O)C[C@H](O)CC(C)C)[C@@H](C)OC(=O)[C@H]([C@@H](C)O)NC1=O` [Peptide A14] ({Hexanoyl(3R-OH,5-Me)}-T[dR]NG[dNMeF]L[dR]E[dOrn][dW]IT; ester 1-C), which EC50 [2, 5] is on record?
Answer: > 1.5 µM

Question: And the EC50 [2, 6]?
Answer: > 1.5 µM

Question: And the EC50 [2, 7]?
Answer: > 1.5 µM

Question: And the EC50 [2, 8]?
Answer: > 1.5 µM

Question: What does the source list for `CC[C@H](C)[C@@H]1NC(=O)[C@@H](Cc2c[nH]c3ccccc23)NC(=O)[C@@H](CCCN)NC(=O)[C@H](CCC(=O)O)NC(=O)[C@@H](CCCNC(=N)N)NC(=O)[C@H](CC(C)C)NC(=O)[C@@H](Cc2ccccc2)N(C)C(=O)CNC(=O)[C@H](Cc2ccc(O)cc2)NC(=O)[C@@H](CCCNC(=N)N)NC(=O)[C@@H](NC(=O)C[C@H](O)CC(C)C)[C@@H](C)OC(=O)[C@H]([C@@H](C)O)NC1=O` [Peptide A7] ({Hexanoyl(3R-OH,5-Me)}-T[dR]YG[dNMeF]L[dR]E[dOrn][dW]IT; ester 1-C)?
Answer: EC50 [2, 5]: 1.12 ± 0.2 µM; EC50 [2, 6]: 1.32 µM; EC50 [2, 7]: 1.12 µM; EC50 [2, 8]: 0.923 µM

Question: With `CC[C@H](C)[C@@H]1NC(=O)[C@@H](Cc2c[nH]c3ccccc23)NC(=O)[C@@H](CCCN)NC(=O)[C@H](CCC(=O)O)NC(=O)[C@@H](CCCNC(=N)N)NC(=O)[C@H](CC(C)C)NC(=O)[C@@H](Cc2ccccc2)N(C)C(=O)CNC(=O)[C@H](CC(=O)O)NC(=O)[C@@H](CCCNC(=N)N)NC(=O)[C@@H](NC(=O)C[C@H](O)CC(C)C)[C@@H](C)OC(=O)[C@H]([C@@H](C)O)NC1=O` [Peptide A16] ({Hexanoyl(3R-OH,5-Me)}-T[dR]DG[dNMeF]L[dR]E[dOrn][dW]IT; ester 1-C) as the compound, how does the EC50 [2, 5] read?
Answer: > 1.5 µM

Question: And the EC50 [2, 6]?
Answer: > 1.5 µM

Question: What about the EC50 [2, 7] of the same compound?
Answer: > 1.5 µM

Question: And the EC50 [2, 8]?
Answer: > 1.5 µM

Question: What does the source list for `CC[C@H](C)[C@@H]1NC(=O)[C@@H](Cc2c[nH]c3ccccc23)NC(=O)[C@@H](Cc2ccc(O)cc2)NC(=O)[C@H](CCC(=O)O)NC(=O)[C@@H](CCCNC(=N)N)NC(=O)[C@H](CC(C)C)NC(=O)[C@@H](Cc2ccccc2)N(C)C(=O)CNC(=O)[C@H](CC(=O)O)NC(=O)[C@@H](CCCNC(=N)N)NC(=O)[C@@H](NC(=O)C[C@H](O)CC(C)C)[C@@H](C)OC(=O)[C@H]([C@@H](C)O)NC1=O` [Peptide A17] ({Hexanoyl(3R-OH,5-Me)}-T[dR]DG[dNMeF]L[dR]E[dY][dW]IT; ester 1-C)?
Answer: EC50 [2, 5]: > 1.5 µM; EC50 [2, 6]: > 1.5 µM; EC50 [2, 7]: > 1.5 µM; EC50 [2, 8]: > 1.5 µM; MIC (Bacillus cereus JCM20037): 16 mg/L (≈ 9.52 µM); MIC [4]: 16 mg/L (≈ 9.52 µM)

Question: With `CC[C@H](C)[C@@H]1NC(=O)[C@@H](Cc2c[nH]c3ccccc23)NC(=O)[C@@H](C(C)C)NC(=O)[C@H](CCC(=O)O)NC(=O)[C@@H](CCCNC(=N)N)NC(=O)[C@H](CC(C)C)NC(=O)[C@@H](Cc2ccccc2)N(C)C(=O)CNC(=O)[C@H](CCCCN)NC(=O)[C@@H](CCCNC(=N)N)NC(=O)[C@@H](NC(=O)C[C@H](O)CC(C)C)[C@@H](C)OC(=O)[C@H]([C@@H](C)O)NC1=O` [Peptide A3] ({Hexanoyl(3R-OH,5-Me)}-T[dR]KG[dNMeF]L[dR]E[dV][dW]IT; ester 1-C) as the compound, how does the MIC (MRSA4) read?
Answer: 0.125 mg/L (≈ 0.0767 µM)

Question: And the “antimicrobial activity relative to parent 1” value [1]?
Answer: 4 fold

Question: And the EC50 [2, 5]?
Answer: 0.822 ± 0.234 µM

Question: And the EC50 [2, 6]?
Answer: 1.01 µM

Question: What about the EC50 [2, 7] of the same compound?
Answer: 0.9 µM

Question: What about the EC50 [2, 8] of the same compound?
Answer: 0.559 µM

Source: publication PMC6611794, “Development of a high-throughput strategy for discovery of potent analogues of antibiotic lysocin E” (Nature Communications, 2019)
